Results as given in article PMC7024302, “Ultrashort Cationic Lipopeptides–Effect of N-Terminal Amino Acid and Fatty Acid Type on Antimicrobial Activity and Hemolysis” (Molecules, 2020).
≈ marks a conversion by molar mass, not a printed value. Residues, ends and D or L forms follow the SMILES beside them. *: point of attachment. Myristoyl = CCCCCCCCCCCCCC(=O)*; Acm = CC(=O)NC*

Tests used:
[1] = Determination of peptide hydrophobicity with RP-HPLC (adjusted retention time); format: physicochemical; conditions: for tR’ (adjusted retention time): Table 1 and b9, measure of hydrophobicity, RP-HPLC, Phenomenex Luna C18(2) 3.0 × 100 mm, 5 µm, linear 10–55% acetonitrile in water over 60 min, 0.5 mL/min, peptide 1 g/L; for tR’ (adjusted retention time) / tR’ / Adjusted retention time: 0.1% TFA, 25.0 °C, UV 214 nm, triplicate; for ∆tR: tR’ of the lipopeptide minus tR’ of C10-RR-NH2 or C12-RR-NH2, same RP-HPLC conditions; for tR’: Table 3, adjusted retention time as hydrophobicity; for tR’ / Adjusted retention time: RP-HPLC C18, linear 10–55% acetonitrile over 60 min; for Adjusted retention time: Table 2, nC = carbon atoms in fatty acid chain
Protocol: To determine peptide hydrophobicity, the Waters Alliance e2695 system with a Waters 2998 PDA Detector (software-Empower®3) was used. All analyses were carried out on a Phenomenex Luna C18(2) column (3.0 × 100 mm, 5 µm particle size, 100 Å pore size). The peptides were dissolved in water (0.1% TFA, v/v) to obtain a concentration of 1 g/L. UV detection at 214 nm was used, and aliquots (10 µL) were eluted with a linear 10–55% acetonitrile gradient in deionized water over 60 min at 25.0 ± 0.1 °C. The mobile phase flow rate was 0.5 mL/min. Both eluents contained 0.1% (v/v) of TFA. Each peptide sample was analyzed in triplicate.

[2] = test system: S. aureus ATCC 25923; format: cell-based, Staphylococcus aureus; conditions: ATCC 25923, 18 h
Excerpt: (§1) The Acinetobacter baumannii ATCC BAA-1605, Candida albicans ATCC 10231, Enterococcus faecium ATCC 700221, Klebsiella aerogenes ATCC 13048 (previously known as Enterobacter aerogenes), Klebsiella pneumoniae ATCC 700603, Pseudomonas aeruginosa ATCC 9027, Staphylococcus aureus ATCC 25923 and MRSA ATCC 33591, were acquired from the American Type Culture Collection (ATCC). Before running the tests, beads with cryo-protected microorganisms were transferred into fresh MHB (BioMaxima, Lublin, Poland) for bacteria or RPMI-1640 for fungi and incubated for 24 h at 37 °C. Then, the culture was seeded on the Mueller-Hinton agar (MHA) plates (BioMaxima, Lublin, Poland) for bacteria or Sabouraud dextrose agar (SDA) plates (BioMaxima, Lublin, Poland) for fungi and incubated as just mentioned. Cell densities for all assays were adjusted spectrophotometrically (Multiskan™ GO Microplate Spectrophotometer, Thermo Fisher Scientific, Vantaa, Finland) at 600 nm for bacteria and at 530 nm for fungi.
(§2) The MICs were determined by broth microdilution method according to the Clinical and Laboratory Standard Institute guidelines. For this purpose initial inoculums of bacteria (5 × 10^5 CFU/mL) in MHB (BioMaxima, Lublin, Poland) and fungi (2 × 10^3 CFU/mL) in RPMI-1640 with 2% D-glucose (Merck, Darmstadt, Germany) prepared with MOPS (pH 7.0 ± 0.1 at 25 °C; Merck, Darmstadt, Germany) were exposed to the ranging concentration of lipopeptides (0.5–256 µg/mL) and incubated at 37 °C for 18 h and 24 h respectively. The experiments were conducted on 96-well microtiter polystyrene plates (Kartell, Italy). The MIC was taken as the lowest peptide concentration at which a noticeable growth of microorganisms was inhibited. All experiments were conducted in triplicate.

[3] = test system: S. aureus ATCC 33591 (MRSA); format: cell-based, Staphylococcus aureus; conditions: ATCC 33591, 18 h
Excerpt: as §1, §2

[4] = test system: P. aeruginosa ATCC 9027; format: cell-based, Pseudomonas aeruginosa; conditions: ATCC 9027, 18 h
Excerpt: as §1, §2

[5] = test system: C. albicans ATCC 10231; format: cell-based, Candida albicans; conditions: ATCC 10231, 24 h, pH 7
Excerpt: as §1, §2

[6] = test system: human red blood cells (hRBCs); format: cell-based; conditions: red cells of human, 1 h
Protocol: The hemolysis assay was performed as described earlier according to the method of Avrahami and Shai. Fresh human red blood cells (hRBCs) with anticoagulant (EDTA) were rinsed three times with a PBS (Merck, Darmstadt, Germany) by centrifugation at 800× g for 10 min and resuspended in PBS. Lipopeptides were serially diluted on 96-well microtiter polystyrene plate and hRBCs were added to reach final volume of 100 µL. Peptide concentration ranged between 0.5 and 256 µg/mL and final hRBCs concentration was 4% (v/v). Controls for zero hemolysis (blank) and 100% hemolysis consisted of hRBCs suspended in PBS and 1% of Triton-X 100 (Merck, Darmstadt, Germany), respectively. The plate was incubated for 1 h at 37 °C and then centrifuged (800× g, 10 min, 4 °C). Subsequently, supernatant was […] to new microtiter plates and absorbance at 540 nm were measured. All experiments were conducted in triplicate. Protocol of the study received approval from the local Bioethics Committee at the Medical University of Gdańsk (NKBBN/262/2019).

[7] = test system: E. faecium ATCC 700221; format: cell-based, Enterococcus faecium; conditions: ATCC 700221, 18 h
Excerpt: as §1, §2

[8] = test system: K. pneumoniae ATCC 700603; format: cell-based, Klebsiella pneumoniae; conditions: ATCC 700603, 18 h
Excerpt: as §1, §2

[9] = test system: A. baumannii ATCC BAA-1605; format: cell-based, Acinetobacter baumannii; conditions: ATCC BAA-1605, 18 h
Excerpt: as §1, §2

[10] = test system: K. aerogenes ATCC 13048; format: cell-based, Klebsiella aerogenes; conditions: ATCC 13048, 18 h
Excerpt: as §1, §2

Row | Structure (SMILES) | tR’ (adjusted retention time) [1] | tR’ [1] | MIC SA [2] | MIC PA [4] | MIC CA [5] | HC50 [6] | other results
1 | CCCCCCCCCCCC(=O)N[C@@H](CCCNC(=N)N)C(=O)N[C@@H](CCCNC(=N)N)C(=O)N[C@@H](Cc1ccccc1)C(N)=O [compound 109, C12-RRF-NH2] (HELM PEPTIDE1{[CCCCCCCCCCCC(=O)[*:2]].R.R.F.[am]}$$$$V2.0) | 38.02 min |  |  |  |  |  | ∆tR [1]: 5.44 min
2 | CCCCCCCCCCCCCC(=O)N[C@@H](CC[S+](C)[O-])C(=O)N[C@@H](CCCNC(=N)N)C(=O)N[C@@H](CCCNC(=N)N)C(N)=O (some centres unmarked) [compound 54, C14-M(O)RR-NH2] (HELM PEPTIDE1{[CCCCCCCCCCCCCC(=O)[*:2]].[CS(=O)CC[C@H](N[*:1])C(=O)[*:2]].R.R.[am]}$$$$V2.0) |  | 39.18 min | 32 µg/mL (≈ 46.6 µM) | 64 µg/mL (≈ 93.2 µM) | 32 µg/mL (≈ 46.6 µM) | 116.28 (±1.77) µg/mL | MIC S [3]: 16 µg/mL (≈ 23.3 µM); MIC E1 [7]: 16 µg/mL (≈ 23.3 µM); MIC K [8]: 256 µg/mL (≈ 373 µM); MIC A [9]: 64 µg/mL (≈ 93.2 µM); MIC E2 [10]: >256 (-) µg/mL
3 | CCCCCCCCCCCCCC(=O)N[C@@H](CSCNC(C)=O)C(=O)N[C@@H](CCCNC(=N)N)C(=O)N[C@@H](CCCNC(=N)N)C(N)=O [compound 14, C14-C(Acm)RR-NH2] (Myristoyl-Cys(Acm)-Arg-Arg-NH2) |  | 43.24 min | 16 µg/mL (≈ 22.4 µM) | 16 µg/mL (≈ 22.4 µM) | 8 µg/mL (≈ 11.2 µM) | 39.72 (±1.25) µg/mL | MIC S [3]: 16 µg/mL (≈ 22.4 µM); MIC E1 [7]: 8 µg/mL (≈ 11.2 µM); MIC K [8]: 256 µg/mL (≈ 359 µM); MIC A [9]: 16 µg/mL (≈ 22.4 µM); MIC E2 [10]: 256 µg/mL (≈ 359 µM)
4 | CCCCCCCC(=O)N[C@@H](CCCC)C(=O)N[C@@H](CCCNC(=N)N)C(=O)N[C@@H](CCCNC(=N)N)C(N)=O [compound 63, C8-NleRR-NH2] (HELM PEPTIDE1{[CCCCCCCC(=O)[*:2]].[Nle].R.R.[am]}$$$$V2.0) |  |  |  |  |  |  | Adjusted retention time [1]: 25.429 min
5 | CCCCCCCCCCCCCC(=O)N[C@@H](CC(=O)O)C(=O)N[C@@H](CCCNC(=N)N)C(=O)N[C@@H](CCCNC(=N)N)C(N)=O [compound 18, C14-DRR-NH2] (HELM PEPTIDE1{[CCCCCCCCCCCCCC(=O)[*:2]].D.R.R.[am]}$$$$V2.0) |  | 40.25 min | 64 µg/mL (≈ 97.7 µM) | 128 µg/mL (≈ 195 µM) | 32 µg/mL (≈ 48.9 µM) | 49.95 (±1.00) µg/mL | 
6 | CCCCCCCCCCCC(=O)NCC(=O)N[C@@H](CCCNC(=N)N)C(=O)N[C@@H](CCCNC(=N)N)C(N)=O [compound 29, C12-GRR-NH2] |  | 33.20 min | 32 µg/mL (≈ 56.3 µM) | 128 µg/mL (≈ 225 µM) | 64 µg/mL (≈ 113 µM) | >256 µg/mL | 
7 | CCCCCCCCCCCC(=O)N[C@@H](CCCNC(=N)N)C(=O)N[C@@H](Cc1ccccc1)C(=O)N[C@@H](CCCNC(=N)N)C(N)=O [compound 107, C12-RFR-NH2] (HELM PEPTIDE1{[CCCCCCCCCCCC(=O)[*:2]].R.F.R.[am]}$$$$V2.0) | 38.67 min |  |  |  |  |  | ∆tR [1]: 6.09 min
8 | CCCCCCCCCCCC(=O)N1CCC[C@H]1C(=O)N[C@@H](CCCNC(=N)N)C(=O)N[C@@H](CCCNC(=N)N)C(N)=O [compound 73, C12-PRR-NH2] |  | 35.82 min | 32 µg/mL (≈ 52.6 µM) | 64 µg/mL (≈ 105 µM) | 64 µg/mL (≈ 105 µM) | >256 µg/mL | 
9 | CCCCCCCCCC(=O)N[C@@H](CCCNC(=N)N)C(=O)N[C@@H](CCCNC(=N)N)C(=O)N[C@@H](Cc1ccccc1)C(N)=O [compound 108, C10-RRF-NH2] (HELM PEPTIDE1{[CCCCCCCCCC(=O)[*:2]].R.R.F.[am]}$$$$V2.0) | 31.07 min |  |  |  |  |  | ∆tR [1]: 6.77 min
10 | CCCCCCCCCCCC(=O)N[C@H](C(=O)N[C@@H](CCCNC(=N)N)C(=O)N[C@@H](CCCNC(=N)N)C(N)=O)[C@@H](C)O [compound 89, C12-TRR-NH2] (HELM PEPTIDE1{[CCCCCCCCCCCC(=O)[*:2]].T.R.R.[am]}$$$$V2.0) |  | 33.82 min | 32 µg/mL (≈ 52.2 µM) | 128 µg/mL (≈ 209 µM) | 64 µg/mL (≈ 104 µM) | >256 µg/mL | 

Further lines, with some results ahead:

Row | tR’ (adjusted retention time) [1] | tR’ [1] | MIC SA [2] | MIC PA [4] | MIC CA [5] | HC50 [6] | Structure (SMILES) | other results
11 |  |  | 4 µg/mL (≈ 7.04 µM) | 8 µg/mL (≈ 14.1 µM) | 16 µg/mL (≈ 28.2 µM) | 200.25 (±16.07) µg/mL | CCCCCCCCC(CCCCCC)C(=O)N[C@@H](CCCNC(=N)N)C(=O)N[C@@H](CCCNC(=N)N)C(N)=O (some centres unmarked) [compound 105, C10(6)-RR-NH2] | MIC S [3]: 4 µg/mL (≈ 7.04 µM); MIC E1 [7]: 8 µg/mL (≈ 14.1 µM); MIC K [8]: >256 (-) µg/mL; MIC A [9]: 256 µg/mL (≈ 451 µM); MIC E2 [10]: >256 (-) µg/mL
12 | 24.30 min | 24.30 min |  |  |  |  | CCCCCCCCCC(=O)N[C@@H](CCCNC(=N)N)C(=O)N[C@@H](CCCNC(=N)N)C(N)=O [compound 2, C10-RR-NH2, reference compound] (HELM PEPTIDE1{[CCCCCCCCCC(=O)[*:2]].R.R.[am]}$$$$V2.0) | 
13 | 31.44 min |  |  |  |  |  | CCCCCCCCCC(=O)N[C@@H](CCCNC(=N)N)C(=O)N[C@@H](Cc1ccccc1)C(=O)N[C@@H](CCCNC(=N)N)C(N)=O [compound 106, C10-RFR-NH2] (HELM PEPTIDE1{[CCCCCCCCCC(=O)[*:2]].R.F.R.[am]}$$$$V2.0) | ∆tR [1]: 7.14 min
14 |  |  | 32 µg/mL (≈ 53.6 µM) | 64 µg/mL (≈ 107 µM) | 64 µg/mL (≈ 107 µM) | >256 µg/mL | CCCCCCCCCC(=O)N[C@@H](CCCC)C(=O)N[C@@H](CCCNC(=N)N)C(=O)N[C@@H](CCCNC(=N)N)C(N)=O [compound 64, C10-NleRR-NH2] (HELM PEPTIDE1{[CCCCCCCCCC(=O)[*:2]].[Nle].R.R.[am]}$$$$V2.0) | Adjusted retention time [1]: 33.155 min
15 |  | 14.46 min |  |  |  |  | CCCCCCCC(=O)N[C@@H](CCCNC(=N)N)C(=O)N[C@@H](CCCNC(=N)N)C(N)=O [compound 1, C8-RR-NH2, reference compound] (HELM PEPTIDE1{[CCCCCCCC(=O)[*:2]].R.R.[am]}$$$$V2.0) | 
16 |  | 40.17 min | 64 µg/mL (≈ 95.7 µM) | 128 µg/mL (≈ 191 µM) | 32 µg/mL (≈ 47.8 µM) | 59.51 (±4.00) µg/mL | CCCCCCCCCCCCCC(=O)N[C@@H](CCC(=O)O)C(=O)N[C@@H](CCCNC(=N)N)C(=O)N[C@@H](CCCNC(=N)N)C(N)=O [compound 22, C14-ERR-NH2] (HELM PEPTIDE1{[CCCCCCCCCCCCCC(=O)[*:2]].E.R.R.[am]}$$$$V2.0) | 
